Assay results taken from ChEMBL document CHEMBL3046523, “Protection of protein carbonyl formation by quercetin in erythrocytes subjected to oxidative stress” (Med Chem Res, 2010).

What was measured:
Erythrocyte [1] = test: Antioxidant activity in Homo sapiens (human) erythrocytes assessed as protection against t-BHP-induced oxidative stress at 0.1 to 100 uM; format: functional, cell-based; details: TDE = time-dependent effect
[2] = Antioxidant activity in plasma assessed as ABTS radical scavenging activity relative to trolox; format: functional, cell-free
Erythrocyte [3] = test: Antioxidant activity in Homo sapiens (human) erythrocytes assessed as protection against t-BHP-induced oxidative stress measured up to 180 min; format: functional, cell-based

In the case of `O=c1c(O)c(-c2ccc(O)c(O)c2)oc2cc(O)cc(O)c12`, the Activity (Erythrocyte [1]) was “tde”, the fold change (FC) [2] was 6 and the Activity (Erythrocyte [3]) was “Dose-dependent effect”.
